According to US20120190615A1, “METHODS AND COMPOSITIONS FOR INDUCING WEIGHT LOSS” (Sanford-Burnham Medical Research Institute, priority 2011, published 2012):

Key:
C3H10T1/2 cells = experiment: Oxygen consumption / uncoupled respiration of cultured mesenchymal stem cells; format: cell-based, mouse
Text: To determine whether the increased respiration was uncoupled from ATP synthesis, oligomycin-insensitive respiration was first assayed as a measure of uncoupled respiration. Oligomycin inhibits F1 ATP synthetase to suppress only oxidative phosphorylation-associated respiration.

HIB1 cells = experiment: Differentiation of HIB1 brown preadipocytes (lipid accumulation, mitochondrial biogenesis); format: cell-based; conditions: SB408124 1 uM, OX treatment for 5 days
Experimental: To further investigate the role of OX in BAT differentiation, the effect of OX on the preadipocyte cell line HIB1 was evaluated. […] Expression of genes functioning in lipid metabolism and mitochondrial biogenesis was elevated while the anti-adipogenic factors […], Pref1, and Wnt10 were expressed at very low levels (FIG. 16).
HIB1 cells were stably transfected with lentivirus over-expressing orexin (Len-OX) and compared to vector controls in the absence or presence of exogenous OX (100 nM), Cells were cultured for 7 days in the absence of differentiation medium and stained with Oil Red O. By day 6 of adipogenic differentiation, orexin-expressing cells had undergone normal BAT differentiation as scored by lipid accumulation.
Brown fat morphological defects seen in both adult and newborn OXR1 KO mice were similar to those observed in OX KO mice. […] To examine the cellular and molecular consequences of OXR1 depletion, lentiviral vectors were used to express a short hairpin (sh) shRNA targeting OXR1 (shOXR1; Open Biosystems, Inc., catalog no. RMM4431-98766481) or a scrambled shRNA control (Open Biosystems, Inc., catalog no. RHS4346) in HIB1 mesenchymal cells. […] After 5 days of differentiation, cultures expressing the scrambled shRNA control had undergone brown fat differentiation as scored by Oil Red O staining and shown in FIG. 18. […]

[1] = system: primary brown preadipocytes; experiment: Differentiation of primary brown preadipocytes (Oil Red O); format: cell-based, mice; conditions: 3 days BMP7 or 100 nM OX, then adipogenic medium
Text: To assess differentiation of primary brown adipocytes, iBAT preadipocytes were isolated from 1-day-old mice and then differentiated in the presence of OX. Differentiation was confirmed by Oil Red O staining which visualizes lipid accumulation (FIG. 7). […] Taken together. OX activates a full program of brown fat adipogenesis by suppressing adipogenic inhibitors, including BAT regulators, elevating mitochondrial biogenesis and oxygen consumption, and inducing uncoupled respiration.
To investigate whether lack of OXR1 impaired BAT differentiation potential, primary brown preadipocytes from OXR1 knockout mice were isolated and differentiated. Generation of wild-type primary brown preadipocyte cell lines was derived from newborn wild-type mice as described previously by Klein et al. (Bioessays, 24: 382-388, 2002), which is hereby incorporated by reference in its entirety. Brown preadipocytes isolated from C57BL-6 mice served as positive control. All cell lines were maintained in Dulbecco's modified […] medium (DMEM), high glucose, supplemented with 10% FBS at 37° C. in a 5% CO2 environment. To induce adipogenesis, the cells were treated for 3 days with either BMP7 or 100 nM OX, at which time they were confluent. Cells were then incubated in adipogenic medium containing 0.125 mM indomethaein, […] dexamethazone, and […] 3-isobutyl-1-methyxanthine (IBMX) supplemented by 20 nM insulin as described by Tseng et al., (Nature, 454: 1000-1004, 2008) which is hereby incorporated by reference in its entirety.

Molecule: N#CC(C#N)=NNc1ccc(OC(F)(F)F)cc1 [FCCP, reference compound]
- oxygen consumption of unstimulated, differentiated cells, increase (C3H10T1/2 cells; in the presence of FCCP): 6 fold

Molecule: CC[C@H]1/C=C/C=C/C[C@@H](C)[C@H](O)[C@@](C)(O)C(=O)[C@@H](C)[C@H](O)[C@@H](C)C(=O)[C@@H](C)[C@H](O)[C@@H](C)/C=C/C(=O)O[C@@H]2[C@H](C)[C@H](CC1)O[C@]1(CC[C@H](C)[C@H](C[C@@H](C)O)O1)[C@H]2C [oligomycin, reference compound]
- respiration of unstimulated differentiated cells (C3H10T1/2 cells; absence of OX): completely suppressed respiration

Molecule: Cc1cc(NC(=O)Nc2ccc(N(C)C)cc2)c2cc(F)cc(F)c2n1 [SB408124, reference compound]
- OX-dependent mitochondrial biogenesis (HIB1 cells): blunted

B1: BMP-7: recombinant human BMP-7 (cat. No. 4579, BioVision), a potent inducer of BAT differentiation (protein, UniProt P18075 293-431, looked up)
Bone morphogenetic protein 7: STGSKQRSQNRSKTPKNQEALRMANVAENSSSDQRQACKKHELYVSFRDLGWQDWIIAPEGYAAYYCEGECAFPLNSYMNATNHAIVQTLVHFINPETVPKPCCAPTQLNAISVLYFDDSSNVILKKYRNMVVRACGCH
- oxygen consumption of treated cells in the presence of oligomycin (C3H10T1/2 cells; oligomycin): efficiently consumed oxygen
- differentiation of wild-type preadipocytes based on lipid accumulation [1]: enhanced differentiation
